The record followed here is paper PMC12384620, “Hit-to-Lead Studies of Pyrazinylpiperazines against Visceral Leishmaniasis: Pharmacokinetic Profile and In Vivo Efficacy of Potent Compounds against Leishmania infantum” (ACS Pharmacology & Translational Science, 2025).

For data set [1], the system named is L. braziliensis Hsp83. Briefly: Hsp83 interaction by differential scanning fluorimetry. Format: binding, Leishmania braziliensis. The procedure: The assays were performed using an Applied Biosystems 7500 Fast RT-PCR system (Applied Biosystems, Foster City, CA, USA), in triplicate, with 96-well PCR plates (BioRad, Hercules, CA, USA) sealed with transparent capping strips (BioRad, Hercules, CA, USA). The plates were centrifugated for 2 min at 2000 rpm at 25 °C. The temperature was then ramped up from 25 to 85 °C, increasing 1 °C per minute, while fluorescence signals were monitored using SYPRO Orange dye, with an excitation wavelength of 492 nm and an emission wavelength of 610 nm.
The DSF conditions used in this study have been previously described. , Briefly, each well contained 10 μM L. braziliensis Hsp90 or 5 μM L. braziliensis SOD, 1 μL of 5X SYPRO Orange, buffer A (50 mM PBS, 100 mM NaCl, pH 7.0 for L. braziliensis SOD or 50 mM Tris-HCl, 100 mM KCl, pH 8.0 for L. braziliensis Hsp90), and either 1 μL DMSO (5% v/v, negative control) or 1 – 6 (diluted in DMSO). […] Raw fluorescence data was collected using the Applied Biosystems 7500 Fast Software v2.0 and then exported to NAMI for Tm calculation via the first-derivative method. Differences in Tm values (ΔTm) were considered statistically significant when p < 0.05, as determined by the Kruskal–Wallis test followed by Dunn’s post-test for multiple comparisons, performed using GraphPad Prism 10.0 (GraphPad Software, San Diego, CA, USA, www.graphpad.com).

The nature of data set [2]: PAMPA gastrointestinal tract permeability. Format: in vitro ADME. The conditions noted are these: for Papp at 8 h, 0.5 mM: PAMPA-GI, read-out: GI Pe. The procedure: A 10 mM solution of each compound in DMSO was prepared and subsequently homogenized in a 5 mL flask with 4.75 mL PBS (pH 6.6) (10 mM). […] 180 μL of a PBS (pH 7.4)/DMSO (95:5) solution were then added to the wells of a 96-well receiver plate, and 5 μL of a L-α-phosphatidylcholine solution (20 mg/mL in dodecane) to the wells of a 96-well donor plate. After 5 min, 180 μL of the solutions containing each compound were added to the wells of the donor plate, in triplicate, and the donor plate was carefully placed over the receiver plate in a “sandwich-like” system, which was left stirring (50 rpm) for 8 h at rt in a sealed vessel containing 10 mL PBS (pH 7.4). Afterward, the donor plate was removed, and the content of the receiver plate was transferred to a UV reading plate, which was read using a microplate reader (SpectraMax 5 – Molecular Devices). A reference sample for the internal correction of the microplate reader was prepared using 180 μL of the PBS (pH 7.4)/DMSO (95:5) solution (adapted from refs and ). The optical density values obtained from the content of the receiver plate were compared with the ones obtained from readings performed with the initial solutions containing each compound, before their addition to the donor plate. […] The optical density values from the receptor plate were compared to those from experimental controls to determine the F a value for each compound, using Microsoft Excel.
In general terms: PAMPA measures passive passage across an artificial lipid membrane.

The test system of data set [3] is L. infantum. As to the kind of experiment: Antileishmanial activity against L. infantum amastigotes in THP-1 macrophages. It counts as cell-based. The conditions noted are these: Leishmania infantum; growth of L. infantum in THP-1 macrophages, 72 h. The procedure:
The in vitro anti-L. infantum activity (IC50) of each compound was evaluated on THP-1 cells (human leukemia monocytic cell line) infected with L. infantum promastigotes, and the in vitro cytotoxicity (CC50) was determined over the THP-1 cell line. The selectivity index (SI) was calculated as the ratio of the CC50 value determined in the cytotoxicity assay, divided by the IC50 value determined in the antileishmanial activity assay.
Cells derived from the human monocytic strain THP-1 were cultured in complete Rowell Park Memorial Institute (RPMI)-1640 medium (supplemented with 10% fetal bovine serum, 100 U/mL penicillin, and 100 μg/mL streptomycin). Monocytes were differentiated into macrophages by the addition of 20 ng/mL phorbol myristate acetate (PMA). After 72 h, the macrophages (5 × 10^4), in black 96-well microtiter plates (Corning Incorporated, Corning, NY), were infected with Leishmania (Leishmania) infantum (MHOM/BR/1974/PP75) promastigotes transfected with gene tdTomato, on the second day of the stationary phase (20 parasites per macrophage) for 4 h. […] The IC50 values were determined by nonlinear regression using a variable slope model (log(concentration) vs growth inhibition) with the GraphPadPrism v8.2.0 (CA, USA) software. Controls with uninfected cells, untreated infected cells, and infected cells treated with amphotericin B at 0.25 μM (positive control) or DMSO 1% were used. Quadruplicates were run on the same plate, and the experiments were repeated at least once.

Data set [4] concerns L. braziliensis. Briefly: Inhibition of growth of L. braziliensis in THP-1 macrophages. Format: cell-based. The settings on record: Leishmania braziliensis. From the text: 1 In Vitro Antileishmanial Potency, Selectivity Index, and ADME Properties of Compounds 1 – 6 | column: L. braziliensis IC50 (μM)^b (SI)^b
For data set [5], the system named is L. infantum GSK-3A. As to the kind of experiment: GSK-3A enzyme inhibition (LANCE TR-FRET). It counts as biochemical. The conditions noted are these: concentrations up to 30 μM, 50 nM enzyme. On the procedure:
The following controls were included: protein in 1% DMSO (100% activity), 10 μM AZD-5438 (0% activity), and buffer without enzyme (blank).
To detect the progress of the enzymatic reaction, a commercially available TR-FRET-based assay (LANCE TR-FRET, PerkinElmer) was used. In the enzymatic step, purified protein kinase and the peptide substrate were incubated with compounds 1 – 6 for 30 min at 25 °C before the addition of ATP to start the reaction, which was run at 30 °C (2 h for GSK-3A or 1 h 15 min for GSK-3B). […]. […]
The fluorescence signal was measured using a CLARIOstar microplate reader (BMG LABTECH) set with an excitation wavelength of 320 nm and an emission wavelength of 665 nm. MARS software (BMG LABTECH) was used to analyze the data obtained after reading each plate. The background fluorescence signal (blank) was subtracted from the fluorescence signal obtained for each reaction, in order to reflect the specific signal of enzymatic activity. The data was then analyzed with the GraphPad Prism v10 software, using the equation “log(inhibitor) vs response - variable slope (four parameters) - Y = Bottom + (Top-Bottom)/(1 + 10̂((LogIC50-X)* HillSlope))” to obtain dose–response curves and determine IC50 values. […]
For orientation: TR-FRET usually uses a lanthanide donor and a delayed reading to cut background.

For the compound `O=C(c1ccc(O)c(Cl)c1)N1CCN(c2cnccn2)CC1` [Compound 1, (3-Chloro-4-hydroxyphenyl)(4-(pyrazin-2-yl)piperazin-1-yl)methanone], the “interaction with L. braziliensis Hsp83 (DSF titration curves)” value in data set [1] (100 μM to 12.5 μM) was “neither of these compounds interacts”. Also, the “Fa, fraction absorbed (GI)” value in data set [2] is 99.26%. Also, in data set [2], the Papp at 8 h, 0.5 mM was 12.9 ×10⁻⁶ cm/s. For the same compound, the IC50 (in general, the concentration at which inhibition is half-maximal) worked out at 11.9 ± 2.2 µM in data set [3] and 11.7 ± 0.7 µM in data set [4]. Moreover, the “inhibition of L. infantum GSK-3A” value in data set [5] is recorded as “did not exert any inhibition”.
In the case of `O=C(c1ccc(O)cc1)N1CCN(c2cnccn2)CC1` [Compound 2, (4-Hydroxyphenyl)(4-(pyrazin-2-yl)piperazin-1-yl)methanone], the “effect on Tm of L. braziliensis Hsp83 (DSF)” value in data set [1] (100 μM) is “failed to exert statistically significant effects”. In addition, in data set [2], the “Fa, fraction absorbed (GI)” value came out at 62.71%. The Papp at 8 h, 0.5 mM in data set [2] was found to be 2.59 ×10⁻⁶ cm/s. The IC50 was found to be 3.1 ± 1.3 µM in data set [3] and 7.6 ± 3.2 µM in data set [4]. For the same compound, in data set [5], the “inhibition of L. infantum GSK-3A” value is “no inhibitory effect”.
